Type in all cases: cell-based
For assay [1], the system named is HSV-1 (herpes simplex virus type 1). Put plainly: HSV-1 (strain schooler) plaque reduction in WI-38 cell monolayers. Conditions: Human alphaherpesvirus 1, 96 h; WI-38 cells; at least 50% plaque reduction; 4 days at 37° C.; read-out: ID50 HSV-1 (strain schooler).
Assay [2] relates to HSV-2 (herpes simplex virus type 2). Put plainly: HSV-2 (strain 186) plaque reduction in WI-38 cell monolayers. Conditions: Human alphaherpesvirus 2, 96 h; WI-38 cells; at least 50% plaque reduction; 4 days at 37° C.; read-out: ID50 HSV-2 (strain 186).
Assay [3] deals with VZV (varicella-zoster virus), strain Ellen. Put plainly: VZV (strain Ellen) plaque reduction in WI-38 cell monolayers. Conditions: Human alphaherpesvirus 3; WI-38 cells; at least 50% plaque reduction; 5-7 days at 37° C.; read-out: ID50 VZV (strain Ellen).
Assay [4] has as its system HCMV (human cytomegalovirus). Put plainly: HCMV (strain AD169) plaque reduction in WI-38 cell monolayers. Conditions: Human betaherpesvirus 5, AD169; WI-38 cells; at least 50% plaque reduction; 5-7 days at 37° C.; read-out: ID50 HCMV (strain AD169).
The subject of another assay is VV (vaccinia virus). Put plainly: microbe, parasite or virus in culture. Conditions: Orthopoxvirus vaccinia, WI-38, 96 h, read-out: ID50 VV (strain CL).
Assay [5] concerns VZV (varicella-zoster virus), strain Oka. Put plainly: VZV (strain Oka) plaque reduction in WI-38 cell monolayers. Conditions: Human alphaherpesvirus 3, WI-38, read-out: ID50 VZV (strain Oka).

With `Nc1nc2c(ncn2[C@@H]2CO[C@H](CO)[C@H]2CO)c(=O)[nH]1` [Example 1, [3S-(3α,4β,5α)]-2-Amino-1,9-dihydro-9-[tetrahydro-4,5-bis(hydroxymethyl)-3-furanyl]-6H-purin-6-one], the IC50 in assay [1] was 7 µM; in assay [2], 1.8 µM; in assay [3], 18 to 36 µM; in assay [4] it was 356 µM; in the assay with VV (vaccinia virus), more than 356 µM.
The like results for `Nc1ncnc2c1ncn2[C@@H]1CO[C@H](CO)[C@H]1CO` [Example 2, [3S-(3α,4β,5α)]-9-[Tetrahydro-4,5-bis(hydroxymethyl)-3-furanyl]-9H-purin-6-amine] were, in that order, 3.8 to 7.5 µM, 3.8 to 7.5 µM, 1.9 to 3.8 µM, 1.9 to 3.8 µM and 8 to 19 µM.
With `Cc1cn([C@@H]2CO[C@H](CO)[C@H]2CO)c(=O)[nH]c1=O` [Example 3, [3S-(3α,4β,5α)]-5-Methyl-1-[tetrahydro-4,5-bis(hydroxymethyl)-3-furanyl]-2,4(1H,3H)-pyrimidinedione], the IC50 was 2 to 4 µM in assay [1], 195 to 390 µM in assay [2], 8 to 19 µM in assay [3] and more than 390 µM in assay [4].
Regarding `O=c1ccn([C@@H]2CO[C@H](CO)[C@H]2CO)c(=O)[nH]1` [Example 4, [3S-(3α,4β,5α)]-1-[Tetrahydro-4,5-bis(hydroxymethyl)-3-furanyl]-2,4(1H,3H)-pyrimidinedione], the IC50 in assay [1] was more than 413 µM; in assay [2], more than 413 µM; in assay [3], 41 to 103 µM; in assay [4], more than 413 µM.
With `O=c1[nH]c(=O)n([C@@H]2CO[C@H](CO)[C@H]2CO)cc1I` [Example 5, [3S-(3α,4β,5α)]-5-Iodo-1-[tetrahydro-4,5-bis(hydroxymethyl)-3-furanyl]-2,4(1H,3H)-pyrimidinedione], the IC50 was 68 to 136 µM in assay [1], more than 272 µM in assay [2], 27 to 68 µM in assay [3] and more than 272 µM in assay [4].
Take `Nc1ccn([C@@H]2CO[C@H](CO)[C@H]2CO)c(=O)n1` [Example 6, [3S-(3α,4β,5α)]-4-Amino-1-[tetrahydro-4,5-bis(hydroxymethyl)-3-furanyl]-2(1H)-pyrimidinone]: the IC50 in assay [1] lay within 21 to 41 µM; in assay [2], 21 to 41 µM; in assay [3], 0.2 to 0.4 µM; in assay [4], 41 to 104 µM; with VV (vaccinia virus), 41 to 415 µM.
Consider `O=c1[nH]c(=O)n([C@@H]2CO[C@H](CO)[C@H]2CO)cc1/C=C/Br` [Example 7, [3S-(3α(E),4β,5α)]-5-(2-Bromoethenyl)-1-[tetrahydro-4,5-bis(hydroxymethyl)-3-furanyl]-2,4(1H,3H)-pyrimidinedione], for which the IC50 is 1.4 to 2.8 µM in assay [1]; more than 288 µM in assay [2]; more than 288 µM in assay [3]; 1.4 µM in assay [5]; more than 288 µM in assay [4].
`Cc1cn([C@@H]2CO[C@H](CO)[C@H]2CO)c(=O)nc1N` [Example 8, [3S-(3α,4β,5α)]-4-Amino-5-methyl-1-[tetrahydro-4,5-bis(hydroxymethyl)-3-furanyl]-2(1H)-pyrimidinone]: the IC50 in assay [1] was 293 µM; in assay [2], 392 µM; in assay [3], 40 µM; in assay [4] it was more than 392 µM.
In the case of `Nc1nc(=O)n([C@@H]2CO[C@H](CO)[C@H]2CO)cc1I` [Example 9, [3S-(3α,4β ,5α)]-4-Amino-5-iodo-1-[tetrahydro-4,5-bis(hydroxymethyl)-3-furanyl]-2(1H)-pyrimidinone], the IC50 is 68 to 136 µM in assay [1], more than 272 µM in assay [2], 5 to 14 µM in assay [3] and more than 272 µM in assay [4].

These data come from patent publication US5145960A, “Pyrimidinyl tetrahydrofurans” (priority 1991, dated 1992).
